The source of these data is US20260273018A1, “PHARMACEUTICAL COMPOSITION CONTAINING SPECIFIC SELF-ASSEMBLING PEPTIDE RADA16 FOR TREATING OR PREVENTING LOWER GASTROINTESTINAL DISEASES SUCH AS INFLAMMATORY BOWEL DISEASE” (3-D Matrix, Ltd., priority 2021, published 2026).

In data set [1] the test system is DSS-induced ulcerative colitis model, large intestine tissue. The data set is described as follows: Histopathological evaluation of colon HE-stained specimens (Histological Colitis Score). The format is in vivo, Mouse. Particulars: compared to the negative control; scores only in the FIGURE. The method, then:
A histopathological evaluation of the colon HE-stained specimens prepared in example 1 was performed. • 1. […] Histopathological evaluation • Blind evaluation of a pathology score was carried out in accordance with the scoring below for two pieces of the upper and lower parts of the large intestine for each specimen (36 pieces in total). Each score of (1), (2), (3) is multiplied by (4), and the total of these is defined as a “Histological Colitis Score.”^1) It should be noted that the lower part of the large intestine is located on the […], and • the upper part of the large intestine is located to the right thereof.
• 1) Dieleman LA., et al. Chronic experimental colitis induced by dextran sulfate sodium (DSS) is characterized by Th1 and Th2 cytokines. Clin Exp Immunol. 1998.

The subject of data set [2] is DSS-induced ulcerative colitis model. Kind of data set: Transanal administration experiment on DSS-induced ulcerative colitis model mice (DAI, body weight, large intestine length, general condition). The format is in vivo. As for the experimental part:
A mouse was made to drink an aqueous solution of 2.5 w/v % dextran sulfate sodium, and the efficacy of a specific peptide having the amino acid sequence indicated by SEQ ID NO 1 on the induced ulcerative colitis model is retrieved by Disease Activity Index. Similarly, Mucosta (registered trademark) and Selbex (registered trademark), which are therapeutic agents for duodenal ulcers, were administered alone or in combination with a peptide having the amino acid sequence indicated by SEQ ID NO 1, and Pentasa (registered trademark) and Rectabul (registered trademark), which are therapeutic agents for ulcerative colitis, were administered alone to compare and study the efficacy. Furthermore, the plasma and removed large intestine collected on the final day of the experiment were shipped to a test contractor. • Dextran sulfate sodium aqueous solution drink period (preparation of dextran sulfate sodium-induced ulcerative colitis model): • Nov. 16, 2019 to Nov. 25, 2019 • Administration period: Nov. 22, 2019 to Nov. 24, 2019 • Disease Activity Index (DAI: Evaluation of body weight, properties, and occult blood): • November 16, November 22, and Nov. 25, 2019 • Blood collected: Nov. 25, 2019 • Large intestine removed and length measured: • Nov. 25, 2019 • Experiment end date: Nov. 25, 2019
• Species: Mouse (SPF) • Strain: BALB/cAnNCrlCrlj • Source: Charles River Laboratories Japan (Atsugi Breeding Center) • Reason for selection of the test system: The mouse strain is widely used for toxicity and drug efficacy tests. • Sex and order (purchase) count: Male: 60 • Age at purchase: 9 weeks • Quarantine and habituation: Quarantine was carried out for six days from the date of animal purchase. During the quarantine period, the general condition was observed daily and body weight was measured on the 1st day (purchase date), 3rd day, and 7th day (quarantine end date). In addition, the habituation period was from the date of animal purchase to the day before the start of drinking the DSS aqueous solution, the general condition was also observed once a day after the quarantine period, and body weight was measured on a grouping day. • Age at the start of test substance administration: 11 weeks
• Administration method: Performed under anesthesia by inhalation of Japanese pharmacopeia isoflurane (Mylan Inc., hereinafter abbreviated as isoflurane). • If there is a clot of feces in the rectum, the animal was massaged, and the feces were removed as much as possible. • The administration solution was aspirated into a 1 mL polypropylene syringe cylinder (sterilized disposable product), inserted through the anus part using a mouse sonde (about 1 cm from the tip), and slowly administered transanally. […] Then, it was slowly pulled out and liquid that leaked from the anus part was wiped off. It should be noted that mixing was performed by lightly inverting by hand so that the test substance administration solution and the Rectabul administration solution would not have large bubbles as much as possible and so that the other comparative control substance administration solution would not foam up, and then each solution was aspirated into the syringe cylinder. • Amount of administration liquid: 0.7 mL • Reason for selection: The method of administration to mice is common and appropriate.
• Animal subjects: All test animals after grouping (excluding non-treatment group) • Model production period: Day 1-10 • Model production method: On the day that drinking of the DSS aqueous started (between 13:00 and 14:00), the water in the glass or polycarbonate water dispenser installed in the cage was changed to a DSS 2.5 w/v % aqueous solution, and the solution was freely ingested. […]

[3] abbreviates: Day 10, transanal 0.7 mL/head on Days 7-9.
The mark [4] stands for this setting: observation period, considered due to progress of DSS colitis.

Take RADARADARADARADA: the “histological score: suppression of intestinal tissue inflammation” value in data set [1] is “had an effect of suppressing intestinal tissue inflammation compared to the negative control”. Also, in data set [2] (Day 7 of DSS 2.5 w/v % drinking (first treatment day), group average, 0.7 mL/head transanal once a day on Days 7, 8, 9), the “average DAI score, Day 7” value is given as 2.8. Further, the “cases scoring 1 "+" for fecal occult blood (visual)” value in data set [2] (Day 10) was “one case”. In data set [2] (setting [3]), the “length of the large intestine, end part of the ileum to just before the rectum (average)” value was 45.52 mm and the “length of the large intestine, end part of the ileum to the anus part (average)” value amounted to 75.71 mm. In addition, in data set [2] (Day 10 of DSS drinking, after transanal 0.7 mL/head on Days 7, 8, 9, group average), the “average DAI score, Day 10” value was determined as 2.8. Also, in data set [2] (found dead on Day 10, cause considered progression of DSS-induced ulcerative colitis), the death entry was “a death was observed”. Also, in data set [2] (observation period), the “general condition: anal bleeding (cases)” value was “one case”, the “general condition: black stool (cases)” value is “one case”, the “general condition: perianal hair stains (pale red) (cases)” value was “one case” and the “general condition: piloerection (cases)” value is recorded as “one case”. Moreover, in data set [2] (setting [4]), the “general condition: irregular respiration (cases)” value is “one to three cases” and the “general condition: small amount of defecation (cases of 5 animals)” value was “one to three cases”. In addition, the “DAI score on Day 10 compared to Day 7” value in data set [2] (result in words, control group increased) is recorded as “did not increase compared to Day 7”. The “body weight loss on Day 10 compared to Day 7” value in data set [2] (result in words, control group lost further weight) was “no further body weight loss was observed compared to Day 7”.
